# Test results: PMC11002875, “Linking triphenylphosphonium cation to a bicyclic hydroquinone improves their antiplatelet effect via the regulation of mitochondrial function” (Redox Biology, 2024)
# Read-outs that look alike come from different tables or passages of the source.
# Legend:
# Washed platelets [1] = assay: Platelet aggregation in washed platelets (aggregometer); type: cell-based, Human; conditions: washed platelets
# Protocol: (§1) Human platelet purification. The blood sample was obtained from voluntary donors (10 days without antiplatelet medication) who agreed to participate after signing informed consent (Scientific Ethics Committee of the University of Talca N° 04–2022). Briefly, blood anticoagulated with acid-citrate-dextrose (ACD) was obtained in a 4:1 v/v ratio. The sample was centrifuged for 12 min at 250 g to obtain platelet-rich plasma (PRP). Subsequently, the PRP was centrifuged for 8 min at 900 g to obtain the platelet pellet. The plasma supernatant was removed, and the platelets were resuspended in Tyrodes buffer without calcium plus ACD in a ratio of 5:1 v/v. The platelets were centrifuged once more for 8 min at 900 g and the pellet was resuspended in Tyrodes buffer without calcium. Finally, the platelets were counted (Mindray BC-3000 Plus hematology counter, Japan), adjusted to the desired concentration, and used within 3 h.
# Platelet aggregation. Washed platelets (200-250 × 10^6 platelets/mL) were preincubated with 2 mM CaCl2 and then with the compounds under study for 5 min at 37 °C in the aggregometer (Agg RAM- Helena Biosciences). Aggregation was initiated with the agonists: collagen 2 μg/mL; convulxin 20 ng/mL; TRAP-6 (Thrombin receptor activator peptide 6) 5 μM; PMA (Phorbol myristate acetate) 100 nM or arachidonic acid 250 μg/mL. The aggregation curve was evaluated for 5 min at 37 °C in shaking at 1000 rpm.
# Washed platelets [2] = assay: Platelet activation markers in washed platelets (flow cytometry); type: cell-based, Human; conditions: collagen 2 μg/mL; compounds 1, 5 and 10 μM; vs activated control
# Protocol: as §1
# Platelet activation markers. Washed platelets (200-250 × 10^6 platelets/mL) were incubated with the compounds (1, 5 and 10 μM), then activated with collagen 2 μg/mL and incubated for 5 min at 37 °C. Aliquots of the reaction were then collected and labeled separately with human antibodies (BD Biosciences, San José, CA, USA) for P-selectin, CD63, activated GPIIb/IIIa (PAC-1), and fibrinogen to assess the levels of each marker on the platelet membrane. The sample was acquired using the BD Facs Lyric flow cytometer (BD Biosciences, USA). Representative dot plots are available in Supplementary Figures 8-11 and 20-23. In the case of the activation markers P-selectin and bound fibrinogen in PRP, the same procedure for washed platelets was performed with representative dot plots available in Supplementary Figs. 15 and 16. The platelet population was identified with anti-CD61-PE or anti-CD61-FITC (BD Biosciences, San José, CA, USA).
# Washed platelets [3] = assay: Mitochondrial membrane potential (TMRM); type: cell-based, Human; conditions: compounds 1, 5 and 10 μM, 20 min
# Protocol: as §1
# Mitochondrial membrane potential (ΔΨm). Washed platelets (50 × 10^6 platelets/mL) were labeled with a 100 nM tetramethylrhodamine methyl ester (TMRM) probe and incubated with compounds (1, 5 and 10 μM) for 20 min at 37 °C. The sample was acquired in the BD Facs Lyric flow cytometer (BD Biosciences, USA). Representative dot plots are available in Supplementary Figs. 12, 24, and 25. Carbonyl cyanide 4-(trifluoromethoxy) phenylhydrazone (FCCP) 1 μM was used as a control for decreasing the mitochondrial membrane potential.
# Washed platelets [4] = assay: Intraplatelet (cytosolic) ROS levels (DHE); type: cell-based, Human; conditions: compounds 1, 5 and 10 μM, 10 min
# Protocol: as §1
# Intraplatelet ROS levels. Washed platelets (50 × 10^6 platelets/mL) were labeled with the dihydroethidium (DHE) probe 10 μM and incubated for 20 min at 37 °C protected from light. After, compounds (1, 5, and 10 μM) were added to the platelets and incubated for 10 min at 37 °C. The sample was acquired in the BD Facs Lyric flow cytometer (BD Biosciences, USA). Representative dot plots are available in Supplementary Figs. 18 and 27. As a positive control for ROS, antimycin A 20 μM was used.
# Washed platelets [5] = assay: Intraplatelet calcium levels (Fluo-4-AM); type: cell-based, Human; conditions: compounds 1, 5 and 10 μM, 10 min
# Protocol: as §1
# Intraplatelet calcium levels. Washed platelets (200-250 × 10^6 platelets/mL) were labeled Fluo-4-AM probe with 0.5 μM and incubated for 20 min at room temperature protected from light. Subsequently, platelets were adjusted to a count of 50 × 10^6 platelets/mL, and compounds (1, 5, and 10 μM) were added and incubated for 10 min at 37 °C. The sample was acquired in the BD Facs Lyric flow cytometer (BD Biosciences, USA). Representative dot plots are available in Supplementary Figs. 13 and 26. As a control for increased intracellular calcium, P-trifluoromethoxyphenylhydrazone carbonylcyanide (FCCP) 1 μM was used.
# Washed platelets [6] = assay: Cellular cytotoxicity by release of lactate dehydrogenase (LDH); type: cell-based, Human; conditions: screening at 10–100 μM
# Protocol: as §1
# Cellular cytotoxicity by the release of lactate dehydrogenase (LDH). Washed platelets (200-250 × 10^6 platelets/mL) were incubated with the compounds under study or vehicle for 15 min at 37 °C. Then, the platelets were centrifuged at 900 g for 8 min to collect the supernatant. […] The absorbance was analyzed at 490 nm (Microplate Reader Thermo Scientific Multiskan Go, Finland).
# platelets = assay: Oxygen consumption and extracellular acidification rate (Seahorse XFe24); type: cell-based, Human; conditions: 10 µM
# Protocol: as §1
# Oxygen consumption and extracellular acidification rate. Oxygen consumption rate (OCR) and extracellular acidification rate (ECAR) were measured with a Seahorse XFe24 extracellular flux analyzer (Agilent, Santa Clara, CA, USA). Briefly, 100 μL of platelets washed in modified Tyrode-HEPES buffer were deposited (20–25 × 10^6 cells/well) and then centrifuged at 300 g for 10 min. Platelets were incubated with NP4 10 μM for 5 min, and then Tyrode's-HEPES buffer was removed and Seahorse medium (8.3 g/L DMEM, 1.85 g/L NaCl, 5 mM glucose, 1 mM pyruvate, 2 mM glutamine, 5 mM HEPES, pH 7.4) was added to a final volume of 600 μL [70]. OCR was measured before and after the sequential addition of 3 μg/mL collagen, 2.5 μM oligomycin, 1.4 μM FCCP, and 2 μM/2 μM antimycin A/rotenone. Non-mitochondrial OCR was subtracted from all measurements. Respiratory parameters obtained with Mito Stress Test (Supplementary Table 1) were calculated as follows: Baseline (baseline OCR), collagen (OCR after collagen addition), activation (collagen-basal), ATP-independent or proton leak (OCR resistant to oligomycin addition), ATP-linked respiration (basal-proton leak), maximum (OCR obtained after addition of FCCP), and spare (maximal-basal), coupling efficiency (OCR Basal – OCR ATP-indep)/OCR Basal). Respiratory parameters were calculated according to Refs. [66, 70, 73].
# [7] = Homo sapiens, Platelet, PMA 100 nM, read-out: IC50 for platelet aggregation, PMA
# [8] = Homo sapiens, Platelet, TRAP-6 5 μM, read-out: IC50 for platelet aggregation, TRAP-6
# [9] = Homo sapiens, Platelet, arachidonic acid 250 μg/mL, read-out: IC50 for platelet aggregation, Arachidonic Acid
# [10] = Homo sapiens, Platelet, collagen 2 μg/mL, read-out: IC50 for platelet aggregation, Collagen
SMILES,IC50 (Washed platelets [1]; [7]) [µM],IC50 (Washed platelets [1]; [8]) [µM],IC50 (Washed platelets [1]; [9]) [µM],IC50 (Washed platelets [1]; [10]) [µM],Bound fibrinogen platelet activation marker (Washed platelets [2]),CD63 platelet activation marker (Washed platelets [2]),PAC-1 (activated GPIIb/IIIa) platelet activation marker (Washed platelets [2]),Mitochondrial membrane potential (ΔΨm) (Washed platelets [3]),Cytosolic total ROS levels (Washed platelets [4]),Intraplatelet calcium levels (Washed platelets [5]),further results
"Cc1c(C)c(O)c2c(c1O)C(=O)C(CCCCBr)=CC2(C)C [NB4, 2-(4-bromobutyl)-5,8-dihydroxy-4,4,6,7-tetramethylnaphthalen-1(4H)-one]",> 20,> 20,> 20,15.3 ± 2.61,,,,,,,
"COc1c(C)c(C)c(O)c2c1C(C)(C)C=C(CCCCBr)C2=O [NBO4, 2-(4-bromobutyl)-8-hydroxy-5-methoxy-4,4,6,7-tetramethylnaphthalen-1(4H)-one]",> 20,> 20,> 20,4.87 ± 1.15,,,,,,,
"CCCCC1=CC(C)(C)c2c(O)c(C)c(C)c(O)c2C1=O [NH4, 2-Butyl-5,8-dihydroxy-4,4,6,7-tetramethylnaphthalen-1(4H)-one]",> 20,> 20,> 20,4.76 ± 0.7,did not have significant effects,did not have significant effects,did not have significant effects,significantly decrease,neither NP4 nor NH4 significantly affected,increase it significantly,
"CCCCC1=CC(C)(C)c2c(OC)c(C)c(C)c(O)c2C1=O [NHO4, 2-Butyl-8-hydroxy-5-methoxy-4,4,6,7-tetramethylnaphthalen-1(4H)-one]",> 20,> 20,> 20,18.4 ± 5.26,,,,,,,
"COc1c(C)c(C)c(O)c2c1C(C)(C)C=C(CCCC[P+](c1ccccc1)(c1ccccc1)c1ccccc1)C2=O.[Br-] [NPO4, (4-(8-hydroxy-5-methoxy-4,4,6,7-tetramethyl-1-oxo-1,4-dihydronaphthalen-2-yl)butyl)triphenyl phosphonium bromide]",,,,,,,,,,,Cytotoxicity by LDH release (screening) (Washed platelets [6]): *NPO4 was excluded because showed high cytotoxicity; melting point: 91.5 to 93 °C
"CCCC[P+](c1ccccc1)(c1ccccc1)c1ccccc1 [TPPBut, butyltriphenylphosphonium cation, reference compound]",,,,,did not show any effect,did not show any effect,did not show any effect,did not show any effect,did not show any effect,did not show any effect,"IC50 (Washed platelets [1]; PMA 100 nM, read-out: IC50 for platelet aggregation, PMA): > 20 µM; IC50 (Washed platelets [1]; TRAP-6 5 μM, read-out: IC50 for platelet aggregation, TRAP-6): > 20 µM; IC50 (Washed platelets [1]; arachidonic acid 250 μg/mL, read-out: IC50 for platelet aggregation, Arachidonic Acid): > 20 µM; IC50 (Washed platelets [1]; collagen 2 μg/mL, read-out: IC50 for platelet aggregation, Collagen): 13.7 ± 2.27 µM; IC50 (Washed platelets [1]; convulxin 20 ng/mL, read-out: IC50 for platelet aggregation, Convulxin): > 20 µM; P-selectin platelet activation marker (Washed platelets [2]): did not show any effect; ATP-dep (OCRBasal – OCRATP-indep) (platelets): 5,68 ± 0,10; Activation (OCRCollagen – OCRBasal) (platelets): 0,59 ± 0,20; Coupling efficiency ((OCRBasal – OCRATP-indep)/OCRBasal) (platelets): 0,92 ± 0,01; Spare (OCRMaximum – OCRBasal) (platelets): 0,73 ± 0,27; Basal (OCR/10^6 platelets) (platelets; Seahorse Mito Stress Test): 6,21 ± 0,08 OCR/10^6 platelets; Maximum (OCR/10^6 platelets) (platelets; after 1.4 μM FCCP): 6,94 ± 0,19 OCR/10^6 platelets; Collagen (OCR/10^6 platelets) (platelets; after 3 μg/mL collagen): 6,80 ± 0,16 OCR/10^6 platelets; Non-mito (OCR/10^6 platelets) (platelets; after antimycin A/rotenone): 0,01 ± 0,02 OCR/10^6 platelets; ATP-indep (OCR/10^6 platelets) (platelets; proton leak, after 2.5 μM oligomycin): 0,52 ± 0,05 OCR/10^6 platelets"
